The numbers were not newly measured in patent US20070185035A1, “ENHANCED MUCOSAL ADMINISTRATION OF NEUROPROTECTIVE PEPTIDES” (Nastech Pharmaceutical Company Inc., priority 2005, published 2007), which cites them from elsewhere.

Where two headings read alike, the source gives them in different places.

For data set [1] the following is noted: anesthetized rats.
The subject of another data set is ciliary motility. Conditions: without obvious ultrastructural lesions.

For “human growth hormone: human growth hormone given nasally to rats with or without N-acetyl-L-cysteine”, the nasal bioavailability in data set [1] (with N-acetyl-L-cysteine (ACS)) is 12.2%; in data set [1] (without N-acetyl-L-cysteine) it was 7.5%.

Consider “2-alkyl-4-hydroxyquinolines [pyo compound]”, for which, in the data set with ciliary motility, the concentration producing ciliostasis was 50 µg/mL.

With `CC(C)CC(N)B(O)O` (centres unmarked) [boro-leucine], in the data set on aminopeptidases, the “effectiveness in enzyme inhibition relative to bestatin” value is given as “more than 100 times” and the “effectiveness in enzyme inhibition relative to puromycin” value is “more than 1000 times”.
